In EP4477653A1 (Perha Pharmaceuticals, priority 2023, dated 2024):
Where two headings read alike, the source gives them in different places.

Tests used:
[1] = target: T1, human recombinant A3AR (expressed in HEK-293 cells) (Homo sapiens, UniProt P0DMS8); assay: Adenosine receptors antagonism assay (Eurofins), [125I]-AB-MECA radioligand competition; format: binding
T1 construct: host or cells: HEK-293 cells
T1 sequence (P0DMS8 1-318): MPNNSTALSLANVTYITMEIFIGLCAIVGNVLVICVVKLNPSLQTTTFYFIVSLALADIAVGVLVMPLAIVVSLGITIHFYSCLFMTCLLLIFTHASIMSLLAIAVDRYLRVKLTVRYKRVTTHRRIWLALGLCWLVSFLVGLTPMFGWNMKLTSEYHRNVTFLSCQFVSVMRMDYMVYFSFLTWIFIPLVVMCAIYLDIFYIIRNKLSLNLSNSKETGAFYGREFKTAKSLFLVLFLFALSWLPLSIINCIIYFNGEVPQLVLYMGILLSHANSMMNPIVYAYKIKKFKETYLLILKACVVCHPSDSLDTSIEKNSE
Description: Assays were carried out at r.t. for 120 min. Compounds were initially tested at three concentrations (0.01, 0.1, 1 µM). […] IC50 values, which is the concentration causing a half-maximal inhibition of control specific binding, and Hill coefficients (nH) were determined by non-linear regression analysis of the competition curves generated with mean replicate values using Hill equation curve fitting. The inhibition constants (Ki) were calculated using the Cheng Prusoff equation.

[2] = Reversed-phase HPLC analysis of final compounds (stability under the analytical conditions); format: physicochemical
Description: Final compounds: Reversed-phase HPLC/MS analyses were carried out with a HPLC Ultimate 3000 (ThermoScientific) with an UV-DAD detector. Mass detection processing with direct infusion in mass detector (SQD2) from UPLC Acquity (Waters). Compounds (0.2 to 0.6 mg) were solubilized in a mixture of DMSO/H2O (1/1) and filtered on syringe filter 0.2 µm. • Acidic conditions: Thermo Scientific Syncronis C18 column, 150 x 4.6 mm, 5 µm. Flow rate: 1 mL/min. Gradient: (H2O + 0.1% HCOOH v/v)/(ACN + 0.1% HCOOH v/v) from 95/5 to 5/95 in 19.0 min. • Alkaline conditions: Thermo Scientific Syncronis C18 column, 150 × 4.6 mm, 5 µm or XTERRA RP18, 150×4.6mm, 3.5µm. Flow rate: 1 mL/min. Gradient: (HCOONH4 10mM + NH4OH 25% aq. to ajust pH = 10)/ACN from 95/5 to 5/95 in 19.0 min. Table 2: Spectroscopic and analytical characterization of compounds (1) to (220)

panel of 168 GPCRs = assay: PathHunter β-arrestin enzyme fragment complementation, agonist and antagonist mode; format: cell-based; conditions: figure 2
Description: […] In brief, when the GPCR is activated and β-Arrestin is recruited to the receptor, the two fragments of β-galactosidase complementation occurs, restoring β- galactosidase activity which is measured using chemiluminescent PathHunter® Detection Reagents. The tested compound can be evaluated as a potential agonist or, in the presnece of a specifi agonits of each GPCR, as a potential antagonist. Results are provided in reference to the assay performed in the absence of tested compound.
The results of an evaluation of the potential agonist or antagonist activity of compound (175) on 168 GPCRs are depicted in figure 2.

[3] = target: T2, Human recombinant A3AR expressed in CHO cells (Homo sapiens, UniProt P0DMS8); assay: A3AR functional assay, cAMP levels measured by HTRF; format: cell-based
T2 construct: expressed in transfected cells; host or cells: CHO cells
T2 sequence (P0DMS8 1-318): T1 sequence (P0DMS8 1-318)
Description: Both assays were run for 20 min at 37°C, and cAMP levels measured by HTRF (homogeneous time resolved fluorescence) was used as an endpoint. The EC50 values (concentration producing a half-maximal response) and IC50 values (concentration causing a half-maximal inhibition of the control agonist response) were determined by non-linear regression analysis of the concentration-response curves generated with mean replicate values using Hill equation curve fitting.
An antagonistic activity in a radioligand assay can be due to competition to the same site by either an agonist or an antagonist (inhibitor). […] Assays were run for 20 min at 37°C and cAMP level measured by HTRF was used as an endpoint measure of the A3AR activity.

[4] = system: hair cells in isolated organs of Corti; assay: Otoprotective effects in ex vivo cultured organs of Corti, hair cells stained for myosine 7a; format: cell-based, mice; conditions: 24 hrs, compound 0.1-1 µM added 2 hrs before
Description: Organs of Corti were obtained from mice at the P0-P3 stage. Organs of Corti were cultured ex vivo for 24 h before addition of cisplatin (20 µM), gentamycin (100 µM) or neomycin (3 mM) with or without compound (175) (1 or 0.1 µM) added 2 hrs before the ototoxins. After 24 hrs incubation, outer and inner ciliated hair cells were stained with an antibody directed against myosine 7a.

[5] = [125I]-AB-MECA 0.15 nM, r.t., 120 min, IC50 from dose-response curves, read-out: Potency Class A3AR

selectivity towards ARs ([1]; A3AR compared to A1AR, A2AAR and A2BAR, figure 3)	IC50 [1, 5] [nM]	effect on all other GPCRs (panel of 168 GPCRs; agonist and antagonist mode, 0.1 µM compound)	inhibition of A3AR among 168 GPCRs (panel of 168 GPCRs; antagonist mode, GPCR exposed to its specific ligand and 0.1 µM compound)	agonist effect ([3]; absence of ligand, concentrations tested 1 nM to 3.3 µM, data not shown)	inhibition of A3AR ([3]; antagonist mode, stimulation 10 nM IB-MECA, 20 min at 37°C, figure 4) [%]	mode of action on A3AR ([3]; figure 4)	HPLC ([2]; Acidic conditions (H2O + 0.1% HCOOH / ACN + 0.1% HCOOH gradient))	SMILES	IC50 [1] [nM]	HPLC ([2]; Alkaline conditions (HCOONH4 10mM + NH4OH, pH = 10 / ACN gradient))	hair cell death induced by cisplatin ([4]; cisplatin 20 µM, figure 5A)	hair cell death induced by gentamycin ([4]; gentamycin 100 µM, figure 5B)	hair cell death induced by neomycin ([4]; neomycin 3 mM, figure 5C)
–	–	–	–	–	–	–	–	CCC(CC)Nc1cc(NC(=O)Oc2ccccc2)c2nnc(C(C)C)n2n1 [compound 100, phenyl N-[6-(1-ethylpropylamino)-3-isopropyl-[1,2,4]triazolo[4,3-b]pyridazin-8-yl]carbamate]	1 to 10	Unstable ^b	–	–	–
selective of A3AR	< 1	not or marginally impacted	fully inhibited	no agonist effect was detected	≥ 65	partial antagonist inhibitor	–	CCC(CC)Nc1cc(Nc2cccnn2)c2nnc(C3CC3)n2n1 [compound 175, 3-cyclopropyl-N6-(pentan-3-yl)-N8-(pyridazin-3-yl)-[1,2,4]triazolo[4,3-b]pyridazine-6,8-diamine]	–	–	prevented cell death	prevented cell death	prevented cell death
–	10 to 100	–	–	–	–	–	Unstable ^a	CSCCCNc1cc(NCc2ccccc2)c2nnc(C(C)C)n2n1 [compound 17, N8-benzyl-3-isopropyl-N6-(3-methylsulfanylpropyl)-[1,2,4]triazolo[4,3-b]pyridazine-6,8-diamine]	–	–	–	–	–
